Experimental data published in US6737383B1, “Herbicidal oxadiazolidines” (priority 1999, dated 2004).

Key:
blackgrass = assay: Test B pre/postemergence blackgrass; assay type: in vivo, Alopecurus myosuroides
How it was run: (§1)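 Herbicidal effect was estimated by eye on a ten-point control scale after plants spent twelve to sixteen days in a greenhouse following soil or foliar treatment. Foliar sprays targeted plants at one to four leaves; all doses were formulated in a non-phytotoxic solvent with surfactant.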

corn = assay: Test B pre/postemergence corn; assay type: in vivo, Zea mays
How it was run: as §1

pigweed = assay: Test B pre/postemergence pigweed; assay type: in vivo, Amaranthus retroflexus
How it was run: as §1

velvetleaf = assay: Test B pre/postemergence velvetleaf; assay type: in vivo, Abutilon theophrasti
How it was run: as §1

bedstraw = assay: Test B pre/postemergence bedstraw; assay type: in vivo, Galium aparine
How it was run: as §1

crabgrass = assay: Test B pre/postemergence crabgrass; assay type: in vivo, Digitaria sanguinalis
How it was run: as §1

wild oat = assay: Test B pre/postemergence wild oat; assay type: in vivo, Avena fatua
How it was run: as §1

giant foxtail = assay: Test B pre/postemergence giant foxtail; assay type: in vivo, Setaria faberii
How it was run: as §1

wheat = assay: Test B pre/postemergence wheat; assay type: in vivo, Triticum aestivum
How it was run: as §1

morningglory = assay: Test B pre/postemergence morningglory; assay type: in vivo, Ipomoea hederacea
How it was run: as §1

rape = assay: Test B pre/postemergence rape; assay type: in vivo, Brassica napus
How it was run: as §1

surinam grass = assay: Test B pre/postemergence surinam grass; assay type: in vivo, Brachiaria decumbens
How it was run: as §1

soybean = assay: Test B pre/postemergence soybean; assay type: in vivo, Glycine max
How it was run: as §1

purple nutsedge = assay: Test B pre/postemergence purple nutsedge; assay type: in vivo, Cyperus rotundus
How it was run: as §1

sugar beet = assay: Test B pre/postemergence sugar beet; assay type: in vivo, Beta vulgaris
How it was run: as §1

cocklebur = assay: Test B pre/postemergence cocklebur; assay type: in vivo, Xanthium strumarium
How it was run: as §1

[1] = Postemergence, Rate 62 g/ha, scale of 0 to 10, 0 is no effect, 10 is complete control
[2] = Postemergence, Rate 125 g/ha, scale 0 to 10, 0 is no effect, 10 is complete control
[3] = Postemergence, Rate 500 g/ha, scale 0 to 10, 0 is no effect, 10 is complete control
[4] = Preemergence, Rate 62 g/ha, scale 0 to 10 (0 no effect, 10 complete control)
[5] = Preemergence, Rate 125 g/ha, scale 0 to 10, 0 is no effect, 10 is complete control
[6] = Preemergence, Rate 500 g/ha, scale of 0 to 10 where 0 is no effect and 10 is complete control
[7] = Rate 250 g/ha, Postemergence, scale of 0 to 10 where 0 is no effect and 10 is complete control

CC(C)N(C(=O)n1oc(=O)n(CCCCF)c1=O)c1ccc(Cl)cc1 [Compound 551]
Blackgrass plant response rating (blackgrass; [1]): 4 | Blackgrass plant response rating (blackgrass; [2]): 7 | Plant response rating, Blackgrass (blackgrass; [3]): 7 | Blackgrass plant response rating (blackgrass; [4]): 3 | Blackgrass plant response rating (blackgrass; [5]): 7 | Blackgrass plant response rating (0 to 10 scale) (blackgrass; Preemergence, Rate 250 g/ha): 9 | Blackgrass plant response rating (blackgrass; [6]): 9 | Plant response rating, Blackgrass (blackgrass; [7]): 7 | Corn plant response rating (corn; [1]): 0 | Corn plant response rating (corn; [2]): 0 | Plant response rating, Corn (corn; [3]): 0 | Corn plant response rating (corn; [4]): 0 | Corn plant response rating (corn; [5]): 0 | Corn plant response rating (0 to 10 scale) (corn; Preemergence, Rate 250 g/ha): 0 | Corn plant response rating (corn; [6]): 5 | Plant response rating, Corn (corn; [7]): 0 | Redroot pigweed plant response rating (pigweed; [1]): 0 | Plant response rating, Redroot pigweed (pigweed; [3]): 7 | Redroot pigweed plant response rating (pigweed; [4]): 8 | Redroot pigweed plant response rating (pigweed; [5]): 9 | Redroot pigweed plant response rating (0 to 10 scale) (pigweed; Preemergence, Rate 250 g/ha): 10 | Redroot pigweed plant response rating (pigweed; [6]): 10 | Plant response rating, Redroot pigweed (pigweed; [7]): 3 | Velvetleaf plant response rating (velvetleaf; [1]): 0 | Plant response rating, Velvetleaf (velvetleaf; [3]): 3 | Velvetleaf plant response rating (velvetleaf; [4]): 0 | Velvetleaf plant response rating (velvetleaf; [5]): 0 | Velvetleaf plant response rating (0 to 10 scale) (velvetleaf; Preemergence, Rate 250 g/ha): 2 | Velvetleaf plant response rating (velvetleaf; [6]): 4 | Plant response rating, Velvetleaf (velvetleaf; [7]): 3 | Bedstraw plant response rating (bedstraw; [1]): 0 | Bedstraw plant response rating (bedstraw; [2]): 0 | Plant response rating, Bedstraw (bedstraw; [3]): 9 | Bedstraw plant response rating (bedstraw; [5]): 8 | Bedstraw plant response rating (bedstraw; [6]): 10 | Plant response rating, Bedstraw (bedstraw; [7]): 4 | Crabgrass plant response rating (crabgrass; [1]): 0 | Crabgrass plant response rating (crabgrass; [2]): 6 | Plant response rating, Crabgrass (crabgrass; [3]): 9 | Crabgrass plant response rating (crabgrass; [4]): 9 | Crabgrass plant response rating (crabgrass; [5]): 9 | Crabgrass plant response rating (0 to 10 scale) (crabgrass; Preemergence, Rate 250 g/ha): 10 | Crabgrass plant response rating (crabgrass; [6]): 10 | Plant response rating, Crabgrass (crabgrass; [7]): 8 | Wild oats plant response rating (wild oat; [1]): 0 | Plant response rating, Wild oats (wild oat; [3]): 5 | Wild oats plant response rating (wild oat; [4]): 0 | Wild oats plant response rating (wild oat; [5]): 3 | Wild oats plant response rating (0 to 10 scale) (wild oat; Preemergence, Rate 250 g/ha): 3 | Wild oats plant response rating (wild oat; [6]): 9 | Plant response rating, Wild oats (wild oat; [7]): 0 | Giant foxtail plant response rating (giant foxtail; [1]): 0 | Plant response rating, Giant foxtail (giant foxtail; [3]): 5 | Giant foxtail plant response rating (giant foxtail; [4]): 10 | Giant foxtail plant response rating (giant foxtail; [5]): 10 | Giant foxtail plant response rating (0 to 10 scale) (giant foxtail; Preemergence, Rate 250 g/ha): 10 | Giant foxtail plant response rating (giant foxtail; [6]): 10 | Plant response rating, Giant foxtail (giant foxtail; [7]): 5 | Wheat plant response rating (wheat; [1]): 0 | Plant response rating, Wheat (wheat; [3]): 3 | Wheat plant response rating (wheat; [4]): 0 | Wheat plant response rating (wheat; [5]): 0 | Wheat plant response rating (0 to 10 scale) (wheat; Preemergence, Rate 250 g/ha): 3 | Wheat plant response rating (wheat; [6]): 6 | Plant response rating, Wheat (wheat; [7]): 0 | Morningglory plant response rating (morningglory; [1]): 1 | Morningglory plant response rating (morningglory; [2]): 2 | Plant response rating, Morningglory (morningglory; [3]): 3 | Morningglory plant response rating (morningglory; [4]): 0 | Morningglory plant response rating (morningglory; [5]): 0 | Morningglory plant response rating (0 to 10 scale) (morningglory; Preemergence, Rate 250 g/ha): 0 | Morningglory plant response rating (morningglory; [6]): 0 | Plant response rating, Morningglory (morningglory; [7]): 4 | Rape plant response rating (rape; [1]): 3 | Rape plant response rating (rape; [2]): 7 | Plant response rating, Rape (rape; [3]): 5 | Rape plant response rating (rape; [4]): 0 | Rape plant response rating (rape; [5]): 3 | Rape plant response rating (0 to 10 scale) (rape; Preemergence, Rate 250 g/ha): 3 | Rape plant response rating (rape; [6]): 9 | Plant response rating, Rape (rape; [7]): 7 | B. signalgrass plant response rating (surinam grass; [1]): 0 | B. signalgrass plant response rating (surinam grass; [2]): 0 | Plant response rating, B. signalgrass (surinam grass; [3]): 4 | B. signalgrass plant response rating (surinam grass; [4]): 4 | B. signalgrass plant response rating (surinam grass; [5]): 9 | B. signalgrass plant response rating (0 to 10 scale, 0 is no effect, 10 is complete control) (surinam grass; Preemergence, Rate 250 g/ha): 9 | B. signalgrass plant response rating (surinam grass; [6]): 9 | Plant response rating, B. signalgrass (surinam grass; [7]): 2 | Soybean plant response rating (soybean; [1]): 2 | Plant response rating, Soybean (soybean; [3]): 3 | Soybean plant response rating (soybean; [4]): 0 | Soybean plant response rating (soybean; [5]): 0 | Soybean plant response rating (0 to 10 scale) (soybean; Preemergence, Rate 250 g/ha): 0 | Soybean plant response rating (soybean; [6]): 0 | Plant response rating, Soybean (soybean; [7]): 3 | Plant response rating, Nutsedge (purple nutsedge; [3]): 0 | Nutsedge plant response rating (purple nutsedge; [4]): 0 | Nutsedge plant response rating (purple nutsedge; [5]): 0 | Nutsedge plant response rating (0 to 10 scale) (purple nutsedge; Preemergence, Rate 250 g/ha): 0 | Nutsedge plant response rating (purple nutsedge; [6]): 0 | Sugarbeets plant response rating (sugar beet; [1]): 2 | Plant response rating, Sugarbeets (sugar beet; [3]): 8 | Sugarbeets plant response rating (sugar beet; [4]): 2 | Sugarbeets plant response rating (sugar beet; [5]): 6 | Sugarbeets plant response rating (0 to 10 scale) (sugar beet; Preemergence, Rate 250 g/ha): 7 | Sugarbeets plant response rating (sugar beet; [6]): 9 | Plant response rating, Sugarbeets (sugar beet; [7]): 5 | Cocklebur plant response rating (cocklebur; [1]): 0 | Cocklebur plant response rating (cocklebur; [2]): 0 | Plant response rating, Cocklebur (cocklebur; [3]): 0 | Cocklebur plant response rating (cocklebur; [4]): 0 | Cocklebur plant response rating (cocklebur; [5]): 0 | Cocklebur plant response rating (0 to 10 scale) (cocklebur; Preemergence, Rate 250 g/ha): 0 | Cocklebur plant response rating (cocklebur; [6]): 0 | Plant response rating, Cocklebur (cocklebur; [7]): 0
